Test results published in article PMC8210154, “Tumor-selective, antigen-independent delivery of a pH sensitive peptide-topoisomerase inhibitor conjugate suppresses tumor growth without systemic toxicity” (NAR Cancer, 2021).
Where a chain is given by its changes, count along the chain named. Entries after “also recorded” stand apart in the source; their conditions may differ.

Columns and labels:
MDA-MB-231 cells [1] = test: Synergy assay (Bliss) exatecan with talazoparib, MDA-MB-231 cells; assay type: cell-based, human; details: Bliss synergy analysis
[2] = target: T1, TOP1 protein levels in HCT116 cells (Homo sapiens, UniProt P11387); test: TOP1 FACS assay, HCT116 cells dosed in vitro; assay type: cell-based; details: 24 h, read-out: IC50 for TOP1 protein levels
T1 construct: endogenous in cells; host or cells: HCT116 cells
T1 sequence (P11387 1-765): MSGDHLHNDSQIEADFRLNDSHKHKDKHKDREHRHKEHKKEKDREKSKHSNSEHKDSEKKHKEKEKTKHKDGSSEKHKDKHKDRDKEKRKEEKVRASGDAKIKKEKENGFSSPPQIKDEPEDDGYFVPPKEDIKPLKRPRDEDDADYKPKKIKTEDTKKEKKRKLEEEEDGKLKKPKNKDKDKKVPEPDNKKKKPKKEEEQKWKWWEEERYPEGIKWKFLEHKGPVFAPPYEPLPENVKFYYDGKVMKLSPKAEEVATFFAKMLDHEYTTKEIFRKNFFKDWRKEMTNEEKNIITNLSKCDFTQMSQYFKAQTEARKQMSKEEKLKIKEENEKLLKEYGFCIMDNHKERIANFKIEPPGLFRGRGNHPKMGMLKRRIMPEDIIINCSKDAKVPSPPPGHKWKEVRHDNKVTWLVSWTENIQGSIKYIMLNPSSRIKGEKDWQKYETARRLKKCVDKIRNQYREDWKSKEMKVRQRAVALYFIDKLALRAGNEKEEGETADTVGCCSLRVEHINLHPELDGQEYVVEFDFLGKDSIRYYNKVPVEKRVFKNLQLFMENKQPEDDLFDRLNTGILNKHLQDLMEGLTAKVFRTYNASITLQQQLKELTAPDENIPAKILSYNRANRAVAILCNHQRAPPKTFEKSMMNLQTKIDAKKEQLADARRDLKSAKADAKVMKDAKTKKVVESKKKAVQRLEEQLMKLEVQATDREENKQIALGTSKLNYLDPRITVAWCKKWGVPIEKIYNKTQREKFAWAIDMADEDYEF
Protocol: HCT116 cells were plated at 2.5 × 10^5/mL in 2 mL DMEM^+ in six-well plates. Cells were allowed to attach overnight in 37°C incubator before compound addition. […] Cells were scraped, washed with PBS and counted.
(§1) Tumor and bone marrow cells collected 24 h after dosing were permeabilized and fixed for 20 min on ice in the dark (Cytofix/Cytoperm Becton Dickinson; #554714), then washed 2× with Perm Wash. Cells were stained with rabbit anti-topoisomerase 1 antibody (Abcam; #109374) at 1 μg/ml on ice in the dark for 30 min and washed 2×, followed by staining with secondary antibody goat anti-rabbit IgG AF647 (Jackson ImmunoResearch; #111-605-144 diluted 1:1000) on ice in dark for 30 min. After a final 2× wash, the reduction of topoisomerase I (TOP1) protein levels was evaluated by collecting 10,000 (tumor) or 30,000 (BM) cells and determining the number of TOP1 positive stained cells on a BD Accuri™ flow cytometer.

MDA-MB-231 cells [3] = test: Short-term viability assay, MDA-MB-231 cells; assay type: cell-based; details: Homo sapiens
Protocol: (§2) Microplate-based short-term viability and synergy assays were performed as described previously ([18]).

[4] = Toxicity in mice (bone marrow cell counts, body weight, stomachs)
Protocol: Following tumor collection, mice were euthanized by cervical dislocation under anesthesia in accordance with the American Veterinary Medical Association (AVMA) Guidelines for the Euthanasia of Animals. Femurs were removed, and bone marrow was extruded into 50 mL conical tubes by flushing the bones with a 23-gauge needle fitted on a 5cc syringe containing PBS + 2% fetal bovine serum (FBS). Bone marrow was homogenized by gentle pipetting and filtered through 100 μm nylon mesh filters and cells were pelleted by centrifugation at 1200 rpm for 5 min at 4°C. Red blood cells were lysed with 3 mL of lysis buffer for 2 min at room temperature. PBS was added to a volume of 25 mL and cells were re-pelleted by centrifugation as described above. Cell pellets were suspended in 5 mL of PBS and cell count was assessed by trypan blue exclusion on a TC-20 cell counter (BioRad).

[5] = target: T2, TOP1 protein levels in HCT116 tumor tissue (Homo sapiens, UniProt P11387); test: TOP1 FACS assay, HCT116 xenografted tumor of dosed mice; assay type: in vivo; details: 2.5 μmol/kg for 4 days, 24 h post last dose
T2 construct: Xenograft tumors were excised, weighed, and minced then were digested to single cells; from tissue; host or cells: HCT116 xenograft tumors from athymic nude mice
T2 sequence (P11387 1-765): T1 sequence (P11387 1-765)
Protocol: The vials capped and vortexed for 2 min.
Xenograft tumors were excised, weighed, and minced then were digested to single cells with an enzyme mix (Miltenyi; #130-095-929) for 40 min shaking at 37°C. Enzymes were inactivated by adding equal volume of DMEM^+. Digested cells were sequentially filtered through 70 μm then 40 μm filters and centrifuged at 700 rpm for 7 min at 4°C.
as §1

[6] = Toxicity in rats (body weight, duodenum H&E histology); assay type: in vivo
From the text: Duodenal tissue samples were fixed in 10% neutral buffered formalin, processed and embedded in paraffin. Tissue cross sections (5 μm) were mounted on positively charged microscope slides and stained with hematoxylin and eosin (H&E) (PolyScientific R&D, New York). Images were taken of tissue sections by standard light microscopy using an EVOS FL Cell Imaging System (Life Technologies) for histomorphological evaluation of intestinal inflammation.

[7] = test system: γH2AX in HCT116 flank tumors; test: γH2AX immunofluorescence assay in HCT116 flank tumors; assay type: in vivo, mice; details: 1.15 mg/kg exatecan, P < 0.001
Protocol: Tumors were collected as detailed above, and FFPE tumor slides were created for IF staining. Antigen retrieval was performed using a heat-induced epitope retrieval (HIER) method, with TRIS-EDTA pH 9.0. Staining with primary antibody (mouse anti-human γH2AX; 1:500, Invitrogen) followed by secondary antibody (Goat anti-mouse Ax594; 1:1000, Invitrogen) was then performed. Images were obtained with a Keyence imager. Data analysis was performed in ImageJ and CellProfiler ([16]). Raincloud plots and heatmap were generated in R version 4.0.3 ([17]). Statistical analysis for γH2AX expression was performed using Kruskal–Wallis test, followed by Dunn's multiple comparison test (GraphPad Prism 9.1.0).

HCT116 cells = test: In vitro cell killing, HCT116 cells; assay type: cell-based; details: Homo sapiens, HCT-116, data not shown
Protocol: as §2

[8] = target: T3, TOP1 protein levels in rat bone marrow cells (Rattus norvegicus, UniProt Q9WUL0); test: TOP1 FACS assay, rat bone marrow cells dosed ex vivo; assay type: cell-based; details: rat bone marrow cells in vitro, 24 h; read-out: IC50 for TOP1 protein levels
T3 construct: from tissue; host or cells: rat bone marrow cells, dosed ex vivo
T3 sequence (Q9WUL0 1-767): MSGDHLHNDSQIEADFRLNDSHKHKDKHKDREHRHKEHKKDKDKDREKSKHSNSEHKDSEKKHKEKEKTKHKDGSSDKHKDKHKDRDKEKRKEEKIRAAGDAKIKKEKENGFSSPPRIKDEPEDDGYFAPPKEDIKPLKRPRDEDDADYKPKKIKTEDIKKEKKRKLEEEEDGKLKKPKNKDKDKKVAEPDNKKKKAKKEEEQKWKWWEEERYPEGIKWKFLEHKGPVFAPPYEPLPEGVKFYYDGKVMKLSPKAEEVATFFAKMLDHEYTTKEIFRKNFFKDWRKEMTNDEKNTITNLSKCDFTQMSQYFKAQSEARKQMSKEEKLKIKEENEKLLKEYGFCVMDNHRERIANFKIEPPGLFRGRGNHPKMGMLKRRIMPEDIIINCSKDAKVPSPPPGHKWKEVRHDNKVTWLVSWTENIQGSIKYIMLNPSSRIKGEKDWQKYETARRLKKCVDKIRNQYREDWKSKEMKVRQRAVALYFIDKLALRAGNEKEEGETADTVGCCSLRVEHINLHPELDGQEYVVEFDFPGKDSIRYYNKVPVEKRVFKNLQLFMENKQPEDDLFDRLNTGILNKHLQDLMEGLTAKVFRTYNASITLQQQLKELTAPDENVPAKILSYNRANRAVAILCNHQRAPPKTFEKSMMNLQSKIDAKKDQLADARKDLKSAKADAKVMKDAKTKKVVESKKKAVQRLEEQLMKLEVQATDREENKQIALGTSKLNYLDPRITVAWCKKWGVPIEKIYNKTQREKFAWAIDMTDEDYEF
Protocol: Naïve Sprague-Dawley rat bone marrow cells were plated at 1 × 10^6/ml in 2 mL of RPMI^+ in six-well plates. Cells were allowed to incubate for 3 h at 37°C before compound addition. […] Cells were harvested, washed with PBS and counted.
as §1

MKN45 xenografts = test: MKN45 xenograft in nude mice; details: MKN45 flank model, 2.3 mg/kg (equimolar to 20 mg/kg CBX-12)
[9] = target: T4, TOP1 protein levels in bone marrow (Mus musculus, UniProt Q04750); test: TOP1 FACS assay, bone marrow of dosed mice; assay type: in vivo; details: 2.5 μmol/kg for 4 days, 24 h post last dose
T4 construct: Mouse bone marrow cells were isolated as described above; from tissue; host or cells: bone marrow of athymic nude mice bearing HCT116 xenografts
T4 sequence (Q04750 1-767): T3 sequence (Q9WUL0 1-767) with D77E, K90R, P141L, L167S, A197P, G239S, K665R
Protocol: Mouse bone marrow cells were isolated as described above.
as §1

Question: For CC[C@@]1(O)C(=O)OCc2c1cc1n(c2=O)Cc2c-1nc1cc(F)c(C)c3c1c2[C@@H](N)CC3 [exatecan], which “interaction when combined with talazoparib” value (MDA-MB-231 cells [1]) is on record?
Answer: robust synergy

Question: What about the DC50 [2] of the same compound?
Answer: 24.8 nM

Question: What about the IC50 (MDA-MB-231 cells [3]) of the same compound?
Answer: 0.21 nM

Question: And the body weight ([4]; mice (Figure 3B))?
Answer: significant and unrecoverable body weight reductions

Question: And the “bone marrow cell counts” value ([4]; mice, equimolar doses)?
Answer: drastic bone marrow suppression

Question: What about the “TOP1 protein levels in HCT116 flank tumor tissue” value [5] of the same compound?
Answer: decreased

Question: What about the “GI toxicity microscopically (H&E of duodenum)” value ([6]; rat, in vivo) of the same compound?
Answer: significant GI toxicity

Question: And the body weight ([6]; rats (Figure 3C))?
Answer: significant and unrecoverable body weight reductions

Question: And the “γH2AX expression after second cycle compared to first cycle” value [7]?
Answer: significant higher γH2AX expression; also recorded: significantly higher γH2AX expression

Question: What about the IC50 (HCT116 cells) of the same compound?
Answer: 0.2 nM

Question: What about the DC50 [8] of the same compound?
Answer: 27.3 nM

Question: What about the tolerability (MKN45 xenografts) of the same compound?
Answer: not tolerated and was lethal in all animals

Question: What about the “TOP1 protein levels in bone marrow” value [9] of the same compound?
Answer: decreased
